Experimental data as given in ChEMBL document CHEMBL1152416, “N-terminal-prolonged vinyl ester-based peptides as selective proteasome beta1 subunit inhibitors” (Bioorg Med Chem, 2009).
Where a SMILES comes first, the peptide text is derived from it. The star is where a group is joined. Cbz = O=C(OCc1ccccc1)*; X1 = C=CO*

Tests used:
[1] = species: Homo sapiens; assay: Stability in human plasma assessed as half life
[2] = Inhibition of […] activity of proteasome from human LCL after 30 mins by fluorimetry; format: subcellular
[3] = test system: JIYOYE; assay: Antiproliferative activity against human Jijoye cells assessed as cell viability at <10 uM after 3 days by trypan blue assay; format: functional, cell-based
[4] = Inhibition of trypsin-like activity of proteasome from human LCL after 30 mins by fluorimetry; format: subcellular
[5] = Inhibition of trypsin-like activity of proteasome from human PBMC after 30 mins by fluorimetry; format: subcellular
[6] = Inhibition of […] activity of proteasome from human PBMC after 30 mins by fluorimetry; format: subcellular
[7] = Inhibition of post acidic activity of proteasome from human LCL after 30 mins by fluorimetry; format: subcellular
[8] = Antiproliferative activity against human LCL cells assessed as cell viability at 10 uM after 3 days by trypan blue assay; format: cell-based; conditions: 72 h
[9] = test system: JIYOYE; assay: Antiproliferative activity against human Jijoye cells assessed as cell viability at 10 uM after 3 days by trypan blue assay; format: functional, cell-based
[10] = Inhibition of […] activity of proteasome from human PBMC after 30 mins by cell based assay; conditions: 0.5 h
[11] = Inhibition of trypsin-like activity of proteasome in human PBMC after 30 mins by cell based assay; conditions: 0.5 h
[12] = Inhibition of post acidic activity of proteasome from human PBMC after 30 mins by fluorimetry; format: subcellular
[13] = Antiproliferative activity against human LCL cells assessed as cell viability at <10 uM after 3 days by trypan blue assay; format: cell-based; conditions: 72 h
[14] = Inhibition of post acidic activity of proteasome from human PBMC after 30 mins by cell based assay; conditions: 0.5 h

SMILES | half-life [1] | IC50 [2] | Activity [3] | IC50 [4] | IC50 [5] | IC50 [6] | IC50 [7] | Activity [8] | Activity [9] | IC50 [10] | IC50 [11] | IC50 [12] | Activity [13] | IC50 [14]
C=COC(=O)[C@H](CC(C)C)NC(=O)[C@H](CO)NC(=O)[C@@H](NC(=O)CCCCCCCNC(=O)OCc1ccccc1)C(C)C | > 6 h | > 10 µM | Non-toxic | > 10 µM | > 10 µM | > 10 µM | 5.64 µM | Toxic | Toxic | > 10 µM | > 10 µM | 0.175 µM | Non-toxic | 0.219 µM
C=COC(=O)[C@H](CC(C)C)NC(=O)[C@H](CO)NC(=O)[C@@H](NC(=O)CCCNC(=O)OCc1ccccc1)C(C)C | – | > 10 µM | – | > 10 µM | > 10 µM | > 10 µM | 6.29 µM | – | – | – | – | 0.745 µM | – | –
C=COC(=O)[C@H](CC(C)C)NC(=O)[C@H](CC(C)C)NC(=O)[C@H](CC(C)C)NC(=O)CCNC(=O)OCc1ccccc1 | > 6 h | > 10 µM | – | > 10 µM | > 10 µM | > 10 µM | 2.34 µM | – | – | > 10 µM | > 10 µM | 0.213 µM | – | 0.32 µM
C=COC(=O)[C@H](CC(C)C)NC(=O)[C@H](CO)NC(=O)[C@@H](NC(=O)CCCCCNC(=O)OCc1ccccc1)C(C)C | > 6 h | > 10 µM | – | > 10 µM | > 10 µM | > 10 µM | 1.39 µM | – | – | > 10 µM | > 10 µM | 0.198 µM | – | 0.41 µM
C=COC(=O)[C@H](CC(C)C)NC(=O)[C@H](CO)NC(=O)[C@@H](NC(=O)CCCCNC(=O)OCc1ccccc1)C(C)C | > 6 h | > 10 µM | – | > 10 µM | > 10 µM | > 10 µM | 1.54 µM | – | – | > 10 µM | > 10 µM | 0.231 µM | – | 0.45 µM
C=COC(=O)[C@H](CC(C)C)NC(=O)[C@H](CC(C)C)NC(=O)[C@H](CC(C)C)NC(=O)CCCCCCNC(=O)OCc1ccccc1 | – | > 10 µM | – | > 10 µM | > 10 µM | > 10 µM | 1.67 µM | – | – | – | – | 0.165 µM | – | –
C=COC(=O)[C@H](CC(C)C)NC(=O)[C@H](CC(C)C)NC(=O)[C@H](CC(C)C)NC(=O)CCCCCNC(=O)OCc1ccccc1 | > 6 h | > 10 µM | Non-toxic | > 10 µM | 5.98 µM | > 10 µM | 1.08 µM | Toxic | Toxic | > 10 µM | 8.86 µM | 0.053 µM | Non-toxic | 0.086 µM
CC(C)C[C@@H](C=O)NC(=O)[C@H](CC(C)C)NC(=O)[C@H](CC(C)C)NC(=O)OCc1ccccc1 [MG-132] (Cbz-Leu-Leu-Leu-aldehyde) | – | 0.002 µM | – | 1.08 µM | 0.911 µM | 0.023 µM | > 10 µM | – | – | – | – | > 10 µM | – | –
C=COC(=O)[C@H](CC(C)C)NC(=O)[C@H](CC(C)C)NC(=O)[C@H](CC(C)C)NC(=O)CNC(=O)OCc1ccccc1 (Cbz-GLLL-X1) | – | > 10 µM | – | > 10 µM | > 10 µM | > 10 µM | > 10 µM | – | – | – | – | 0.545 µM | – | –
C=COC(=O)[C@H](CC(C)C)NC(=O)[C@H](CC(C)C)NC(=O)[C@H](CC(C)C)NC(=O)CCCCCCCNC(=O)OCc1ccccc1 | – | > 10 µM | – | > 10 µM | > 10 µM | > 10 µM | 2.43 µM | – | – | – | – | 0.487 µM | – | –
C=COC(=O)[C@H](CC(C)C)NC(=O)[C@H](CO)NC(=O)[C@@H](NC(=O)CNC(=O)OCc1ccccc1)C(C)C (Cbz-GVSL-X1) | – | > 10 µM | – | > 10 µM | > 10 µM | > 10 µM | > 10 µM | – | – | – | – | 2.89 µM | – | –
CC[C@H](C)[C@H](NC(=O)[C@H]([C@@H](C)CC)N(C)C(C)=O)C(=O)N[C@H](C(=O)N[C@@H](CC(C)C)C(=O)[C@@]1(C)CO1)[C@@H](C)O [EPOXOMYCIN] | – | 0.005 µM | – | – | 0.758 µM | 0.009 µM | – | – | – | – | – | > 10 µM | – | –
C=COC(=O)[C@H](CC(C)C)NC(=O)[C@H](CO)NC(=O)[C@@H](NC(=O)CCCCCCNC(=O)OCc1ccccc1)C(C)C | > 6 h | > 10 µM | – | > 10 µM | > 10 µM | > 10 µM | 2.71 µM | – | – | > 10 µM | > 10 µM | 0.186 µM | – | 0.237 µM
C=COC(=O)[C@H](CC(C)C)NC(=O)[C@H](CC(C)C)NC(=O)[C@H](CC(C)C)NC(=O)CCCCNC(=O)OCc1ccccc1 | > 6 h | > 10 µM | – | > 10 µM | 6.05 µM | > 10 µM | 0.87 µM | – | – | > 10 µM | 9.54 µM | 0.078 µM | – | 0.128 µM
C=COC(=O)[C@H](CC(C)C)NC(=O)[C@H](CO)NC(=O)[C@@H](NC(=O)CCNC(=O)OCc1ccccc1)C(C)C | – | > 10 µM | – | > 10 µM | > 10 µM | > 10 µM | > 10 µM | – | – | – | – | 0.831 µM | – | –
C=COC(=O)[C@H](CC(C)C)NC(=O)[C@H](CC(C)C)NC(=O)[C@H](CC(C)C)NC(=O)CCCNC(=O)OCc1ccccc1 | > 6 h | > 10 µM | – | > 10 µM | 7.23 µM | > 10 µM | 2.07 µM | – | – | > 10 µM | > 10 µM | 0.208 µM | – | 0.33 µM
